{"source": "patent US20090105222A1", "about": "“PREVENTION AND TREATMENT OF […] DISORDERS, INCLUDING STRESS-RELATED DISORDERS” (Cypress Bioscience, Inc., priority 2002, published 2009)", "origin": "cited, not measured here", "molecular_target": "NMDA receptor", "settings": "reported in literature (Shuto et al.); read-out: IC50 value, NMDA receptor antagonistic properties", "note": "pIC50: −log10 of the molar value."}
{"smiles": "CCN(CC)C(=O)C1(c2ccccc2)CC1CN", "note": "(stereo not shown) [milnacipran]", "values": [{"measurement": "pIC50", "value": "~5.20"}]}
